Assay results from US20090246134A1, “COMPOSITIONS AND METHODS FOR MODULATING GATED ION CHANNELS” (PainCeptor Pharma Corporation, priority 2007, published 2009).
Where “and” joins values, the source holds several entries; their conditions need not be identical. Equal values may be shown once.

What was measured:
[1] = tested on: formalin-induced pain in Sprague-Dawley rats; assay: Formalin model of acute tonic pain; type: in vivo, rat; details: rat, in vivo
Description: Male Sprague-Dawley rats are housed together in groups of three animals under standard conditions with unrestricted access to food and water. All experiments are conducted according to the ethical guidelines for investigations of experimental pain in conscious animals (Zimmerman, 1983)
Assessment of formalin-induced flinching behavior in normal, uninjured rats (body weight 150-180 g) was made with the use of an Automated Nociception Analyser (University of California, San Diego, USA). Briefly, this involved placing a small C-shaped metal band (10 mm wide×27 mm long) on the hindpaw of the rat to be tested. The rats (four rats were included in each testing session) were then placed in a cylindrical plexiglass observation chamber (diameter 30.5 cm and height 15 cm) for 20 min for adaptation purposes prior to being administered drug or vehicle according to the experimental paradigm being followed. After adaptation, individual rats were then gently restrained and formalin (5% in saline, 50 μl, s.c.) was injected into the plantar surface of the hindpaw using a 27 G needle. Rats were then returned to their separate observation chambers, each of which were in turn situated upon an enclosed detection device consisting of two electromagnetic coils designed to produce an electromagnetic field in which movement of the metal band could be detected. The analogue signal was then digitised and a software algorithm (LabView) applied to enable discrimination of flinching behaviour from other paw movements. A sampling interval of 1 min was used and on the basis of the resulting response patterns 5 phases of nociceptive behaviour were identified and scored: first phase (P1; 0-5 min), interphase (Int; 6-15 min), second phase (P2; […]), phase 2A (P2A; 16-40 min) and phase 2B (P2B; 41-60 min).
Nociceptive behavior was also determined manually every 5 min by measuring the amount of time spent in each of four behavioral categories: 0, treatment of the injected hindpaw is indistinguishable from that of the contralateral paw; 1, the injected paw has little or no weight placed on it; 2, the injected paw is elevated and is not in contact with any surface; 3, the injected paw is licked, bitten, or shaken. A weighted nociceptive score, ranging from 0 to 3 was calculated by multiplying the time spent in each category by the category weight, summing these products, and dividing by the total time for each 5 min block of time. (Coderre et al., Pain 1993; 54: 43). On the basis of the resulting response patterns, 2 phases of nociceptive behavior were identified and scored: first phase (P1; 0-5 min), interphase (Int; 6-15 min), second phase (P2; […]), phase 2A (P2A; 16-40 min) and phase 2B (P2B; 41-60 min).
Statistical analysis was performed using Prism™ 4.01 software package (GraphPad, San Diego, Calif., USA). The difference in response levels between treatment groups and control vehicle group was analyzed using an ANOVA followed by Bonferroni's method for post-hoc pair-wise comparisons. A p value<0.05 was considered to be significant
The effect of Compound A on pain induced by intraplantar formalin injection was investigated. Compound A was administered i.p. 30 min. before the formalin. Compound A was able to reduce the total pain score behavior (flinching, licking, biting) in phase 1 and 2 of the formalin test.

[2] = Liver microsomes stability and metabolite identification (LC-MS), rat; type: in vitro ADME
Excerpt: (§1) The objective of this study is to analyze in vitro samples of Compound A and Compound B from rat and human microsomes using liquid chromatography quadrupole ion trap mass spectrometry and identify the nature of the metabolite(s) for each species.
(§2) The HPLC system consisted of a Thermo Surveror autosampler and a Thermo Surveyor MS pump (San Jose, Calif., USA). The LC-MS/MS system used was a Thermo LCQ Advantage (San Jose, Calif., USA). Data was acquired on a Dell Optiplex desktop computer (Round Rock, Tex., USA) equipped with operation system Windows XP professional. Data acquisition and analysis were performed using XCalibur 1.4 (San Jose, Calif., USA).
(§3) After the incubation period of the liver microsomes, the reaction was stopped with the addition of acetonitrile and frozen for transport. Before analysis, the samples were thawed at room temperature. They were vortexed vigorously and centrifuged at approximately 12000 g for 10 minutes. The supernatant was transferred into an injection vial for analysis.
(§4) A gradient mobile phase was used with a Thermo Phenyl 100×2 mm column with particle size of 5 μm. The initial mobile phase condition consisted of methanol and 0.1% formic acid solution at a ratio of 20:80, respectively. From 0 to 2 minutes, the ratio was maintained at 20:80. From 2 to 10 minutes, a linear gradient was applied and a ratio of 90:10 was maintained from 10 to 12 minutes. […] The flow rate was fixed at 0.25 mL/min.
(§5) The mass spectrometer was interfaced with the HPLC system using a pneumatic assisted electrospray ion source. The sheath gas was set to 15 units and the ESI electrode was set to 4000 V (positive mode). The capillary temperature was set at 300° C., and the capillary voltage was set to 13 V. The mass spectrometer was operating in full scan MS mode using one segment analysis (200-800).

[3] = Liver microsomes stability and metabolite identification (LC-MS), dog; type: in vitro ADME
[4] = Liver microsomes stability and metabolite identification (LC-MS), human; type: in vitro ADME
Excerpt: as §1, §2, §3, §4, §5

[5] = Plasma composition analysis, parent compound and metabolites by MS; type: in vivo; details: rat plasma
Description: Rats receive compounds (5 mg/kg) dissolved in HPβCD 15%, dextrose 2.5%, pH 5 by intravenous (i.v). route or (25-30 mg/kg) dissolved in HPβCD 15%, dextrose 2.5%, […] (s.c.) route or (50-150 mg/kg) dissolved in HPβCD 15%, dextrose 2.5%, pH 5 by oral (p.o.) route. After the treatment, approximately 100 μl of blood sample is collected and the accurate bleeding time is recorded for each sample. Each blood sample is collected into Microvette blood collection tube containing anticoagulant lithium heparin. Following collection, the samples are centrifuged at […] for 15 minutes (to avoid haemolysis) and the plasma obtained from each is recovered and stored frozen (at −80° C.) pending analysis. Frozen samples are shipped on dry ice to quantify drug concentration within plasma after extraction procedure as previously described in Example 13.

[6] = rat microsomes 60 min (samples 8-10)
[7] = dog microsomes 60 min (samples 26-28)
[8] = human microsomes 60 min (samples 17-19)

## CCN1CCc2c(-c3cc(F)ccc3OC)cc3c(c2C1)NC(=O)/C3=N/O [Compound B, 5-(5-fluoro-2-methoxyphenyl)-6,7,8,9-tetrahydro-3-(hydroxyimino)-8-ethyl-1H-pyrrolo[3,2-h]isoquinoline-2(3H)-one]
[1]
  acute tonic pain induced by formalin injection in the paw: block
[2]; % peak area relative to parent at T0, 60 min incubation, rat microsomes
  Total % metabolites: 12.8%
[2]; [6]
  Compound B metabolite identification: m/z 342: Yes
  Compound B metabolite identification: m/z 356: Yes
  Compound B metabolite identification: m/z 370 (parent): Yes
  Compound B metabolite identification: m/z 386: Yes
[2]; rat microsomes, time 0 min
  Calc. Conc.: 4.95 µM
[2]; rat microsomes, time 60 min
  Calc. Conc.: 0.90 µM and 0.92 µM and 0.97 µM
[3]; % peak area relative to parent at T0, 60 min incubation, dog microsomes
  Total % metabolites: 4.93%
[3]; [7]
  Compound B metabolite identification: m/z 342: very weak
  Compound B metabolite identification: m/z 356: very weak
  Compound B metabolite identification: m/z 370 (parent): Yes
  Compound B metabolite identification: m/z 386: low
[3]; dog microsomes, time 0 min
  Calc. Conc.: 4.44 µM and 4.56 µM
[3]; dog microsomes, time 60 min
  Calc. Conc.: 4.33 µM and 4.38 µM and 4.17 µM
[4]; % peak area relative to parent at T0, 60 min incubation, human microsomes
  Total % metabolites: 9.4%
[4]; [8]
  Compound B metabolite identification: m/z 342: Yes
  Compound B metabolite identification: m/z 356: low
  Compound B metabolite identification: m/z 370 (parent): Yes
  Compound B metabolite identification: m/z 386: Yes
[4]; human microsomes, time 0 min
  Calc. Conc.: 4.39 µM and 5.04 µM
[4]; human microsomes, time 60 min
  Calc. Conc.: 4.34 µM and 4.59 µM and 5.03 µM
[5]; IV 5 mg/kg
  Plasma Component: N-desMe or desEt: Trace
  Plasma Component: O-desMe: Trace
  Plasma Component: P—OH: Trace
[5]; PO 50 mg/kg
  Plasma Component: N-desMe or desEt: Trace
  Plasma Component: O-desMe: Trace
  Plasma Component: P—OH: Trace
[5]; SC 25 mg/kg
  Plasma Component: N-desMe or desEt: Trace
  Plasma Component: O-desMe: Trace
  Plasma Component: P—OH: Trace
